The text below walks through data of US8455475B2 (Gruenenthal GmbH, priority 2009, dated 2013).

In this assay the target is T1, rat B1R (bradykinin receptor 1) (Rattus norvegicus, UniProt P97583).
T1 construct: expressed in transfected cells; host or cells: CHO K1 cells
T1 sequence (P97583 1-337): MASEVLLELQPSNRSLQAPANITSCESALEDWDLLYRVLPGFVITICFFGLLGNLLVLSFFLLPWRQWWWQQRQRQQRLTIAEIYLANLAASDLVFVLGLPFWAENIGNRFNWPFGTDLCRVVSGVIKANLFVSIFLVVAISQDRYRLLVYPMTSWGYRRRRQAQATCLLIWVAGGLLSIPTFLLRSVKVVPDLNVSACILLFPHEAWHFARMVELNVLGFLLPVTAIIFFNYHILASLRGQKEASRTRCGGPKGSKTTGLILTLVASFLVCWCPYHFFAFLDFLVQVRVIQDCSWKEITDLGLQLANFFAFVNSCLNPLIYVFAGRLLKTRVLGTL
Briefly: FLIPR Ca2+ assay (Fluo-4) on CHO K1 cells stably transfected with the B1R gene of the rat (rB1R cells): % inhibition at 10 μM / IC50, agonist Des-Arg9-bradykinin. The class given is cell-based. The settings on record: for inhibition at 10 µM: CHO-K1, rat B1R. The method in brief: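 Cells were Fluo-4-loaded, then test compound (10 μM, or a concentration series for IC50) was preincubated 10–20 min before agonist challenge at EC80: Lys-Des-Arg9-bradykinin for hB1R, Des-Arg9-bradykinin for rB1R. Peak Ca2+ fluorescence (ex 488/em 540 nm) gave % inhibition versus maximal achievable inhibition.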

In the case of `N#Cc1ccc(CN2CCC3(CC2)CCN(C(=O)c2ccc4c(c2)C(NC(=O)c2c(F)cccc2Cl)CC4)C3)cc1` (centres unmarked) [IND_CC-739, 2-Chloro-N-[6-[8-[(4-cyano-phenyl)-methyl]-2,8-diazaspiro[4.5]decane-2-carbonyl]-2,3-dihydro-1H-inden-1-yl]-6-fluoro-benzamide], the inhibition at 10 µM worked out at 83%.

With `O=C(c1ccc2c(c1)C(NS(=O)(=O)c1cc(Cl)ccc1Cl)CC2)N1CCC2(CCN(c3ccncc3)CC2)C1` (centres unmarked) [IND_CC-357, 2,5-Dichloro-N-[6-(8-pyridin-4-yl-2,8-diazaspiro[4.5]decane-2-carbonyl)-2,3-dihydro-1H-inden-1-yl]-benzenesulfonic acid amide], the inhibition at 10 µM was 95%.

`Cn1ccc2cc(S(=O)(=O)N3CCC4(CCN(C(=O)c5ccc6c(c5)C(N(C(=O)c5ccccc5Cl)C5CC5)CC6)C4)CC3)ccc21` (centres unmarked) [IND_CC-619, 2-Chloro-N-cyclopropyl-N-[6-[8-[(1-methyl-1H-indol-5-yl)sulfonyl]-2,8-diazaspiro[4.5]decane-2-carbonyl]-2,3-dihydro-1H-inden-1-yl]-benzamide]: the inhibition at 10 µM was determined as 57%.

As for `CC1(C)CC(NS(=O)(=O)c2ccc(Cl)cc2Cl)c2cc(C(=O)N3CCC4(CC3)CCN(c3ccncc3)CC4)ccc21` (centres unmarked) [IND_CC-335, 2,4-Dichloro-N-[3,3-dimethyl-6-(3-pyridin-4-yl-3,9-diazaspiro[5.5]undecane-9-carbonyl)-1,2-dihydro-inden-1-yl]-benzenesulfonic acid amide], the inhibition at 10 µM turned out to be 102%.

Consider `Cc1cccc(C(=O)NC2CCc3ccc(C(=O)N4CCC5(CC4)CCN(c4ccncc4)C5)cc32)c1C` (centres unmarked) [IND_CC-388, 2,3-Dimethyl-N-[6-(2-pyridin-4-yl-2,8-diazaspiro[4.5]decane-8-carbonyl)-2,3-dihydro-1H-inden-1-yl]-benzamide], for which the inhibition at 10 µM amounted to 101%.

Regarding `COc1ccc(CN2CCC3(CC2)CCN(C(=O)c2ccc4c(c2)C(NC(=O)c2cc(Cl)ccc2F)CC4)CC3)cc1F` (centres unmarked) [IND_CC-630, 5-Chloro-2-fluoro-N-[6-[9-[(3-fluoro-4-methoxy-phenyl)-methyl]-3,9-diazaspiro[5.5]undecane-3-carbonyl]-2,3-dihydro-1H-inden-1-yl]-benzamide], the inhibition at 10 µM stood at 53%.

`O=C(c1ccc2c(c1)C(N(C(=O)c1ccccc1Cl)C1CC1)CC2)N1CCC2(CCN(C(=O)c3ccc(F)cc3F)CC2)C1` (centres unmarked) [IND_CC-606, 2-Chloro-N-cyclopropyl-N-[6-[8-(2,4-difluoro-benzoyl)-2,8-diazaspiro[4.5]decane-2-carbonyl]-2,3-dihydro-1H-inden-1-yl]-benzamide]: the inhibition at 10 µM came out at 66%.

Turning to `CN(C(=O)C1CC1)C1CCc2ccc(C(=O)N3CCC4(CC3)CCN(c3ccncc3)CC4)cc21` (centres unmarked) [IND_CC-369, N-Methyl-N-[6-(9-pyridin-4-yl-3,9-diazaspiro[5.5]undecane-3-carbonyl)-2,3-dihydro-1H-inden-1-yl]-cyclopropanecarboxylic acid amide], the inhibition at 10 µM was 74%.

`CCC(CC)CN1CCC2(CC1)CCN(C(=O)Cc1ccc3c(c1)C(NC(=O)c1ccccc1Cl)CC3)C2` (centres unmarked) [IND_CC-806, 2-Chloro-N-[6-[2-[8-(2-ethyl-butyl)-3,8-diazaspiro[4.5]decan-3-yl]-2-oxo-ethyl]-2,3-dihydro-1H-inden-1-yl]-benzamide]: the inhibition at 10 µM came out at 75%.

Turning to `O=C(NC1CCc2ccc(C(=O)N3CCC4(CCN(Cc5ccc6nccnc6c5)CC4)C3)cc21)c1cccc(Cl)c1Cl` (centres unmarked) [IND_CC-745, 2,3-Dichloro-N-[6-[8-(quinoxalin-6-yl-methyl)-2,8-diazaspiro[4.5]decane-2-carbonyl]-2,3-dihydro-1H-inden-1-yl]-benzamide], the inhibition at 10 µM stood at 70%.

As for `Cc1c(CN2CCC3(CC2)CCN(C(=O)c2ccc4c(c2)C(NC(=O)c2c(F)cccc2Cl)CC4)C3)cnn1C` (centres unmarked) [IND_CC-737, 2-Chloro-N-[6-[8-[(1,5-dimethyl-1H-pyrazol-4-yl)-methyl]-2,8-diazaspiro-[4.5]decane-2-carbonyl]-2,3-dihydro-1H-inden-1-yl]-6-fluoro-benzamide], the inhibition at 10 µM was found to be 55%.

As to “2-Methyl-N-[6-(8-pyridin-4-yl-2,8-diazaspiro[4.5]decane-2-carbonyl)-2,3-dihydro-1H-inden-1-yl]-benzamide [IND_CC-358]”, under “rat B1R”, the “% Inhibition (rat B1R) at 10 μM” value was 104%.

On to `CCCNC(=O)N1CCC2(CC1)CCN(C(=O)c1ccc3c(c1)C(NC(=O)c1ccccc1Cl)CC3)CC2` (centres unmarked) [IND_CC-704, 3-[3-[(2-Chloro-benzoyl)amino]-2,3-dihydro-1H-indene-5-carbonyl]-N-propyl-3,9-diazaspiro[5.5]undecane-9-carboxylic acid amide], for which the inhibition at 10 µM amounted to 91%.

`Cc1cccc(Cl)c1C(=O)NC1CCc2ccc(C(=O)N3CCC4(CCN(Cc5c(F)cccc5Cl)CC4)C3)cc21` (centres unmarked) [IND_CC-735, 2-Chloro-N-[6-[8-[(2-chloro-6-fluoro-phenyl)-methyl]-2,8-diazaspiro-[4.5]decane-2-carbonyl]-2,3-dihydro-1H-inden-1-yl]-6-methyl-benzamide]: the inhibition at 10 µM amounted to 81%.

Consider `COc1ccc(C(=O)NC2CCc3ccc(C(=O)N4CCC5(CC4)CCN(c4ccc(C(F)(F)F)cc4)CC5)cc32)c(Cl)c1` (centres unmarked) [IND_CC-213, 2-Chloro-4-methoxy-N-[6-[9-[4-(trifluoromethyl)-phenyl]-3,9-diazaspiro[5.5]undecane-3-carbonyl]-2,3-dihydro-1H-inden-1-yl]-benzamide], for which the inhibition at 10 µM amounted to 73%.

Take `N#Cc1ccc(CN2CCC3(CC2)CCN(C(=O)c2ccc4c(c2)C(NC(=O)c2ccccc2Cl)CC4)CC3)cc1` (centres unmarked) [IND_CC-533, 2-Chloro-N-[6-[9-[(4-cyano-phenyl)-methyl]-3,9-diazaspiro[5.5]undecane-3-carbonyl]-2,3-dihydro-1H-inden-1-yl]-benzamide]: the inhibition at 10 µM stood at 74%.

For the compound `CCC(CC)C(=O)NC1CCc2ccc(C(=O)N3CCC4(CCN(c5ccncc5)CC4)C3)cc21` (centres unmarked) [IND_CC-420, 2-Ethyl-N-[6-(8-pyridin-4-yl-2,8-diazaspiro[4.5]decane-2-carbonyl)-2,3-dihydro-1H-inden-1-yl]-butyramide], the inhibition at 10 µM amounted to 100%.

For the compound `CCCC(=O)NC1CCc2ccc(C(=O)N3CCC4(CCN(c5ccncc5)CC4)C3)cc21` (centres unmarked) [IND_CC-411, N-[6-(8-Pyridin-4-yl-2,8-diazaspiro[4.5]decane-2-carbonyl)-2,3-dihydro-1H-inden-1-yl]-butyramide], the inhibition at 10 µM was determined as 101%.

Regarding `CCCNC(=O)N1CCC2(CC1)CCN(C(=O)c1ccc3c(c1)C(N(C(=O)c1ccccc1Cl)C1CC1)CC3)C2` (centres unmarked) [IND_CC-712, 2-[3-[(2-Chloro-benzoyl)-cyclopropyl-amino]-2,3-dihydro-1H-indene-5-carbonyl]-N-propyl-2,8-diazaspiro[4.5]decane-8-carboxylic acid amide], the inhibition at 10 µM turned out to be 76%.

On to `O=C(NC1CCc2ccc(C(=O)N3CCC4(CCN(Cc5c(F)cccc5Cl)CC4)C3)cc21)c1cccc(Cl)c1Cl` (centres unmarked) [IND_CC-725, 2,3-Dichloro-N-[6-[8-[(2-chloro-6-fluoro-phenyl)-methyl]-2,8-diazaspiro[4.5]decane-2-carbonyl]-2,3-dihydro-1H-inden-1-yl]-benzamide], for which the inhibition at 10 µM amounted to 56%.

`O=C(NC1CCc2ccc(C(=O)N3CCC4(CCN(Cc5csnn5)CC4)CC3)cc21)c1cc(Cl)ccc1F` (centres unmarked) [IND_CC-652, 5-Chloro-2-fluoro-N-[6-[9-([1,2,3]thiadiazol-4-yl-methyl)-3,9-diazaspiro[5.5]undecane-3-carbonyl]-2,3-dihydro-1H-inden-1-yl]-benzamide]: the inhibition at 10 µM stood at 53%.

For `O=C(c1ccc2c(c1)C(N(C(=O)c1ccccc1Cl)C1CC1)CC2)N1CCC2(CCN(Cc3ccc(F)cc3F)CC2)C1` (centres unmarked) [IND_CC-523, 2-Chloro-N-cyclopropyl-N-[6-[8-[(2,4-difluoro-phenyl)-methyl]-2,8-diazaspiro[4.5]decane-2-carbonyl]-2,3-dihydro-1H-inden-1-yl]-benzamide], the inhibition at 10 µM is 68%.

In the case of `Cc1c(CN2CCC3(CC2)CCN(C(=O)c2ccc4c(c2)C(NC(=O)c2ccccc2Cl)CC4)C3)cnn1C` (centres unmarked) [IND_CC-559, 2-Chloro-N-[6-[8-[(1,5-dimethyl-1H-pyrazol-4-yl)-methyl]-2,8-diazaspiro[4.5]decane-2-carbonyl]-2,3-dihydro-1H-inden-1-yl]-benzamide], the inhibition at 10 µM turned out to be 56%.

Turning to `CC(C)CN1CCC2(CC1)CCN(C(=O)c1ccc3c(c1)C(NC(=O)c1cc(Cl)ccc1F)CC3)CC2` (centres unmarked) [IND_CC-680, 5-Chloro-2-fluoro-N-[6-[9-(2-methyl-propyl)-3,9-diazaspiro[5.5]undecane-3-carbonyl]-2,3-dihydro-1H-inden-1-yl]-benzamide], the inhibition at 10 µM was found to be 54%.

`O=C(NC1CCc2ccc(C(=O)N3CCC4(CCN(Cc5ccncc5)CC4)CC3)cc21)c1cc(C(F)(F)F)ccc1Cl` (centres unmarked) [IND_CC-641, 2-Chloro-N-[6-[9-(pyridin-4-yl-methyl)-3,9-diazaspiro[5.5]undecane-3-carbonyl]-2,3-dihydro-1H-inden-1-yl]-5-(trifluoromethyl)-benzamide]: the inhibition at 10 µM is 74%.

For the compound `O=C(NC1CCc2ccc(C(=O)N3CCC4(CCN(Cc5c(F)cccc5Cl)CC4)CC3)cc21)c1ccccc1Cl` (centres unmarked) [IND_CC-530, 2-Chloro-N-[6-[9-[(2-chloro-6-fluoro-phenyl)-methyl]-3,9-diazaspiro[5.5]undecane-3-carbonyl]-2,3-dihydro-1H-inden-1-yl]-benzamide], the inhibition at 10 µM worked out at 96%.
